Source: US11389415B2, “Methods of regulating cannabinoid receptor activity-related disorders and diseases” (The United States of America as represented by the …, priority 2012, dated 2022)

Tested on: rat C6 glioma xenografts
Assay: Gene expression profiling (microarray, GO term and PAGE gene set analysis) in rat C6 glioma xenografts
Assay type: in vivo, mouse
Details: MNF_Control
Protocol: Analysis of gene expression in rat C6 glioma xenografts. Total RNA was isolated from rat C6 glioma xenografts harvested from vehicle and MNF-treated mice (n=3 per group, cohort 1). This analysis was repeated in a second cohort of animals (n=3 per group, cohort 2). Total cellular RNA was extracted using an RNeasy plus mini kit (QIAGEN, Valencia, Calif.), and its quality was assessed using an Agilent BioAnalyzer using RNA 6000 Nano Chips (Agilent Technologies, Santa Clara, Calif.). Transcriptional profiling was determined using Illumina Sentrix BeadChips (Illumina, San Diego, Calif.). Total RNA was used to generate biotin-labeled cRNA with the Illumina TotalPrep RNA Amplification Kit. In short, 0.5 ug of total RNA was first converted into single-stranded cDNA with reverse transcriptase using an oligo-dT primer containing the T7 RNA polymerase promoter site and then copied to produce double-stranded cDNA molecules. The double-stranded cDNA was cleaned and concentrated with the supplied columns and used in an overnight in-vitro transcription reaction where single-stranded RNA (cRNA) was generated incorporating biotin-16-UTP. A total of 0.75 μg of biotin-labeled cRNA was hybridized at 58° C. for 16 hours to Illumina's Sentrix Rat Ref-12 Expression BeadChips. Each BeadChip has ˜22,000 well-annotated RefSeq transcripts with approximately 30-fold redundancy. The arrays were washed, blocked and the labeled cRNA was detected by staining with streptavidin-Cy3. Hybridized arrays were scanned using an Illumina BeadStation 500× Genetic Analysis Systems scanner and the image data extracted using Illumina's GenomeStudio software, version 1.6.1. For statistical analysis, the expression data were filtered to include only probes with a consistent signal on each chip and an Illumina detecton p value <0.02.
Correlation analysis, sample clustering analysis and principal component analysis was performed to identify/exclude any possible outliers. The resulting dataset was next analyzed with DIANE 6.0, a spreadsheet-based microarray analysis program using value statistics for Z-Score reliability below 0.05; and mean background-corrected signal intensity greater than zero.
Gene set enrichment analysis use gene expression values or gene expression change values for all of the genes in the microarray. Parametric analysis of gene set enrichment (PAGE) was used using the WEB-PAGE GSA tool for gene set analysis. Gene Sets include the MSIG database, Gene Ontology Database, GAD human disease and mouse phenotype gene sets were used to explore functional level changes. Gene-gene interaction was also analyzed using the INGENUITY® Pathway Analysis (IPA) system (INGENUITY® Systems).

SMILES: COc1ccc(C[C@@H](C)NC[C@H](O)c2cc(O)cc(O)c2)c2ccccc12 [(R,R′)-MNF, (R,R′)-4′-methoxy-1-naphthylfenoterol]
- Z score, ADIP_DIFF_CLUSTERS (cohort 1): −4.6054
- Z score, ATRBRCAPATHWAY (cohort 1): −1.8815
- Z score, BRCA_PROGNOSIS_NEG (cohort 1): −3.2974
- Z score, BRENTANI_REPAIR (cohort 1): −3.8568
- Z score, CANCER_UNDIFFERENTIATED_META_UP (cohort 1): −4.8288
- Z score, CELL_CYCLE (cohort 1): −5.0187
- Z score, CELL_CYCLE_KEGG (cohort 1): −4.1925
- Z score, CMV_IE86_UP (cohort 1): −6.1497
- Z score, CROONQUEST_IL6_STARVE_UP (cohort 1): −6.5055
- Z score, CROONQUIST_IL6_RAS_DN (cohort 1): −6.7147
- Z score, DAC_FIBRO_DN (cohort 1): −4.4476
- Z score, DNA_REPLICATION_REACTOME (cohort 1): −3.8683
- Z score, DOX_RESIST_GASTRIC_UP (cohort 1): −5.8557
- Z score, E2F1_DNA_UP (cohort 1): −3.6781
- Z score, GAY_YY1_DN (cohort 1): −7.6370
- Z score, GOLDRATH_HP (cohort 1): −2.4433
- Z score, HDACI_COLON_BUT12 HRS_UP (cohort 1): 5.3212
- Z score, HDACI_COLON_BUT16HRS_UP (cohort 1): 3.6723
- Z score, HDACI_COLON_BUT24HRS_UP (cohort 1): 3.0864
- Z score, HDACI_COLON_TSABUT_UP (cohort 1): 4.1465
- Z score, HIPPOCAMPUS_DEVELOPMENT_POSTNATAL (cohort 1): 3.6731
- Z score, HOFFMANN_BIVSBII_BI_TABLE2 (cohort 1): −5.1273
- Z score, HYPOPHYSECTOMY_RAT_DN (cohort 1): 3.6187
- Z score, IDX_TSA_UP_CLUSTER3 (cohort 1): −6.1057
- Z score, IRITANI_ADPROX_LYMPH (cohort 1): −5.1468
- Z score, KAMMINGA_EZH2_TARGETS (cohort 1): −5.3211
- Z score, KENNY_WNT_UP (cohort 1): −4.0135
- Z score, LAMB_CYCLIN_D3_GLOCUS (cohort 1): −2.8637
- Z score, LEE_TCELLS2_UP (cohort 1): −4.1051
- Z score, LEE_TCELLS3_UP (cohort 1): −7.2409
- Z score, LI_FETAL_VS_WT_KIDNEY_DN (cohort 1): −5.4447
- Z score, MANALO_HYPOXIA_DN (cohort 1): −3.2723
- Z score, MIDDLEAGE_DN (cohort 1): −3.6696
- Z score, MOREAUX_TACI_HI_IN_PPC_UP (cohort 1): −2.9881
- Z score, MOREAUX_TACI_HI_VS_LOW_DN (cohort 1): −4.3721
- Z score, OLDAGE_DN (cohort 1): −4.5391
- Z score, P21_P53_ANY_DN (cohort 1): −5.0275
- Z score, PEART_HISTONE_DN (cohort 1): −2.5055
- Z score, PODI_KO_UP (cohort 1): −3.9363
- Z score, PRMT5_KD_UP (cohort 1): −9.3903
- Z score, REN_E2F1_TARGETS (cohort 1): −2.9150
- Z score, SASAKI_ATL_UP (cohort 1): −5.0963
- Z score, SASAKI_TCELL_LYMPHOMA_VS_CD4_UP (cohort 1): −5.0963
- Z score, SERUM_FIBROBLAST_CELLCYCLE (cohort 1): −7.2985
- Z score, SHEPARD_BMYB_MORPHOLINO_DN (cohort 1): −4.3350
- Z score, SHEPARD_CRASH_AND_BURN_MUT_VS_WT_DN (cohort 1): −3.9994
- Z score, SHEPARD_GENES_COMMON_BW_CB_MO (cohort 1): −4.0300
- Z score, STEMCELL_NEURAL_UP (cohort 1): −6.0983
- Z score, TARTE_MATURE_PC (cohort 1): 3.6636
- Z score, TARTE_PLASMA_BLASTIC (cohort 1): −4.8905
- Z score, VERNELL_PRB_CLSTR1 (cohort 1): −3.4691
- Z score, YU_CMYC_UP (cohort 1): −4.4689
- Z score, ZHAN_MM_CD138_PR_VS_REST (cohort 1): −6.1404
- Z score, ADIP_DIFF_CLUSTERS (cohort 2): −6.8850
- Z score, ATRBRCAPATHWAY (cohort 2): −2.9977
- Z score, BRCA_PROGNOSIS_NEG (cohort 2): −5.4682
- Z score, BRENTANI_REPAIR (cohort 2): −2.9453
- Z score, CANCER_UNDIFFERENTIATED_META_UP (cohort 2): −6.2847
- Z score, CELL_CYCLE (cohort 2): −7.4222
- Z score, CELL_CYCLE_KEGG (cohort 2): −7.0955
- Z score, CMV_IE86_UP (cohort 2): −6.5954
- Z score, CROONQUEST_IL6_STARVE_UP (cohort 2): −9.0059
- Z score, CROONQUIST_IL6_RAS_DN (cohort 2): −7.7040
- Z score, DAC_FIBRO_DN (cohort 2): −4.9523
- Z score, DNA_REPLICATION_REACTOME (cohort 2): −6.5700
- Z score, DOX_RESIST_GASTRIC_UP (cohort 2): −8.6145
- Z score, E2F1_DNA_UP (cohort 2): −4.4885
- Z score, GAY_YY1_DN (cohort 2): −4.7456
- Z score, GOLDRATH_HP (cohort 2): −2.2875
- Z score, HDACI_COLON_BUT12 HRS_UP (cohort 2): 3.6676
- Z score, HDACI_COLON_BUT16HRS_UP (cohort 2): 3.4287
- Z score, HDACI_COLON_BUT24HRS_UP (cohort 2): 3.3154
- Z score, HDACI_COLON_TSABUT_UP (cohort 2): 3.4480
- Z score, HIPPOCAMPUS_DEVELOPMENT_POSTNATAL (cohort 2): 10.3312
- Z score, HOFFMANN_BIVSBII_BI_TABLE2 (cohort 2): −7.7114
- Z score, HYPOPHYSECTOMY_RAT_DN (cohort 2): 3.9294
- Z score, IDX_TSA_UP_CLUSTER3 (cohort 2): −10.1593
- Z score, IRITANI_ADPROX_LYMPH (cohort 2): −3.3728
- Z score, KAMMINGA_EZH2_TARGETS (cohort 2): −7.2448
- Z score, KENNY_WNT_UP (cohort 2): −5.5586
- Z score, LAMB_CYCLIN_D3_GLOCUS (cohort 2): −4.3054
- Z score, LEE_TCELLS2_UP (cohort 2): −5.6671
- Z score, LEE_TCELLS3_UP (cohort 2): −8.0339
- Z score, LI_FETAL_VS_WT_KIDNEY_DN (cohort 2): −9.1715
- Z score, MANALO_HYPOXIA_DN (cohort 2): −6.1956
- Z score, MIDDLEAGE_DN (cohort 2): −7.7600
- Z score, MOREAUX_TACI_HI_IN_PPC_UP (cohort 2): −3.8456
- Z score, MOREAUX_TACI_HI_VS_LOW_DN (cohort 2): −3.2936
- Z score, OLDAGE_DN (cohort 2): −7.1043
- Z score, P21_P53_ANY_DN (cohort 2): −7.4300
- Z score, PEART_HISTONE_DN (cohort 2): −5.2170
- Z score, PODI_KO_UP (cohort 2): −4.3565
- Z score, PRMT5_KD_UP (cohort 2): −5.4620
- Z score, REN_E2F1_TARGETS (cohort 2): −3.5319
- Z score, SASAKI_ATL_UP (cohort 2): −5.5299
- Z score, SASAKI_TCELL_LYMPHOMA_VS_CD4_UP (cohort 2): −5.5299
- Z score, SERUM_FIBROBLAST_CELLCYCLE (cohort 2): −10.6997
- Z score, SHEPARD_BMYB_MORPHOLINO_DN (cohort 2): −4.7947
- Z score, SHEPARD_CRASH_AND_BURN_MUT_VS_WT_DN (cohort 2): −4.0540
